{"source": "patent US20120014917A1", "about": "“METHODS OF TREATING HIV PATIENTS WITH ANTI-FIBROTICS” (University of Minnesota, priority 2009, published 2012)", "key": {"SIV MAC239": {"tested_on": "SIV MAC239", "test": "Pirfenidone in SIV-infected non-human primate model (FIG. 1 protocol, Example 2)", "format": "in vivo", "from_the_text": "Venous blood will be used to measure CD4^+ cell count by flow cytometry. Tissue biopsies (LN and ileal GALT samples) are divided; one portion will be processed by immunohistochemical staining for quantitative image analysis to determine the absolute size of the total CD4^+ cell population, and the remaining portion will be processed by flow cytometry to proportionately quantify CD4^+ cells (total, naïve, central memory [CM], and effector memory [EM] T cells). These methods have been published elsewhere [Schacker et al., 2006, Clinical and Vaccine Immunology 13:556-60; Schacker et al., 2005, AIDS 19:2169-71; Schacker et al., 2002, J Clin Invest 110:1133-9; Schacker J Infect Dis 186:1092-7]. For flow cytometry, a portion of LN tissue and GALT will be placed on ice and CD4^+ cells are isolated within 24 hours by gently separating the cells from surrounding tissue by using a mesh screen. One million cells are washed once in FACS wash (PBS supplemented with 0.1% sodium azide and 2% bovine serum albumin; Sigma). After aspiration of the supernatant, cells will be stained with peridin clorophylla protein-conjugated CD4, allophycocyanin conjugated CD8, phycoerythrin conjugated CD27, and fluorescein isothiocyanate-conjugated CD45RO (all BD Pharmingen), and incubated for 30 min at 4° C., followed by another wash. Cells will be fixed with 1% paraformaldahyde (Electron Microscopy Sciences) and analyzed on a FACS Calibur flow cytometer (BD Pharmingen). Lymphocytes will be gated on the basis of characteristic forward and side scatter properties, followed by separation into CD4^+ T cells and CD8^+ T cells on the basis of expression of CD4 and CD8. Naive T cells are classified by expression of CD27 without expression of CD45RO, as described elsewhere [Brenchley et al., 2003, Blood 101:2711-20]. CM T cells will be classified by coexpression of CD27 and CD45RO, and EM T cells are classified by lack of CD27 expression.\nTo quantify the total CD4^+ T cell population in each compartment, 4-μm sections will be prepared from the fixed tissues and stained with antibody for CD4 by using either clone 1F6 (Ventana Medical Systems) or clone 4B12 (Neomarkers; Lab Vision). Images will be captured to quantify the percentage of tissue area occupied by CD4 by using PHOTOSHOP CS2, version 9.0 imaging software (ADOBE SYSTEMS, Inc.) with plug-ins from REINDEER GRAPHICS. Inc.\nTo quantify collagen in the TZ, methods similar to those previously published can be used [Schacker et al., 2002, J. Clin. Investig. 110:1133-1139]. Sections (4 μm) are stained using a modified trichrome stain to identify collagen fibers, and approximately 18 images from the TZ are captured and transported into PHOTOSHOP CS imaging software (ADOBE SYSTEMS, Inc.). Image analysis tools from REINDEER GRAPHICS, Inc. (Asheville, N.C.) may provide better sensitivity for isolating collagen fibers to quantify the percent area occupied by collagen.\nIn this study, six animals were divided into two groups of three animals each. One group received pirfenidone for 2 weeks and then was infected with SIV MAC239. […] Pirfenidone was continued for 12 weeks following infection and then discontinued for 12 weeks (i.e., week 24) and then restarted. Thus, the pirfenidone-treated group would receive pirfenidone from week −2 to week 12 (14 weeks) and from week 24 to week 36 (12 weeks) for a […]. […] The dose of pirfenidone used was 200 mg/kg orally, twice daily (BID) for a total daily dose of 400 mg/kg/day. This corresponds to a human dose of approximately 6.5 mg/kg BID.\nA diagram of the protocol can be seen in FIG. 1. Lymph node and rectal biopsy samples were collected at day 0 and again at weeks 4, 12, 24, and 36 after infection. […]"}, "[1]": {"tested_on": "TNF-α, TGF-β1, bFGF, PDGF, and EGF", "settings": "reported in Zhang et al. 1998; Cain et al. 1998; cited from earlier work"}, "SIV infection": {"tested_on": "SIV infection", "test": "24-week study of pirfenidone plus ARV versus ARV only in SIV infection (FIG. 6 protocol, Example 4)", "format": "in vivo", "description": "FIG. 6 depicts a study protocol wherein pirfenidone is administered from Week −2 (relative to SIV infection) through the end of the study and co-administration of antiretroviral therapy is initiated at Week 8 and continued through the end of the study.\nThis example describes a 24-week study according to the protocol depicted in FIG. 6. In short, there were two groups in the study. The first group (group C as depicted in FIG. 6) received only ARV beginning at Week 8 (relative to SIV infection) of the study and continuing through week 24. The second group (group D as depicted in FIG. 6) received pirfenidone beginning at week −2 of the study and ARV beginning at Week 8. Both pirfenidone and ARV were then co-administered through Week 24 of the study. Tissues were biopsied at Week −2. Additional biopsies were conducted at Weeks 12, 16 and 24 (after sacrifice of the animal)."}, "[2]": {"tested_on": "collagen expression; matrix metalloproteinases (MMPs) and TIMPs", "settings": "reported; cited from earlier work"}}, "note": "“Also recorded” adds a separate entry of the source.", "data": [{"smiles": "Cc1ccc(=O)n(-c2ccccc2)c1", "note": "[pirfenidone]", "values": [{"measurement": "tolerability, adverse effects or toxicity", "setting": "SIV MAC239; 200 mg/kg orally BID (400 mg/kg/day)", "value": "well-tolerated without adverse effects or toxicity"}, {"measurement": "peripheral blood CD4 T cell count", "setting": "SIV MAC239; pirfenidone 200 mg/kg BID orally vs animals not given pirfenidone, FIG. 3A", "value": "no significant change; also recorded: no obvious difference"}, {"measurement": "percent CD4 (CD4%) in peripheral blood", "setting": "SIV MAC239; pirfenidone 200 mg/kg BID orally vs animals not given pirfenidone, FIG. 3B", "value": "no significant change; also recorded: no obvious difference"}, {"measurement": "plasma SIV RNA load (viral load)", "setting": "SIV MAC239; pirfenidone 200 mg/kg BID orally vs animals not given pirfenidone, FIG. 3C", "value": "no significant change; also recorded: no obvious difference"}, {"measurement": "fibrosis (percent area of T cell zone occupied by collagen) in lymph nodes", "setting": "SIV MAC239; pirfenidone 200 mg/kg BID vs animals not given pirfenidone, FIGS. 4, 5A, 11A", "value": "decreased; also recorded: significant reduction; also recorded: less fibrosis; also recorded: significant difference"}, {"measurement": "size of the CD4+ T cell population (area staining positive for CD4) in lymph node T cell zone", "setting": "SIV MAC239; pirfenidone 200 mg/kg BID vs animals not given pirfenidone, FIGS. 4, 5B, 11C", "value": "increased; also recorded: more of the TZ stains positive for CD4^+ T cells; also recorded: higher CD4 numbers; also recorded: significant difference"}, {"measurement": "proportion of the TZ occupied by collagen (composite, FIG. 12A)", "setting": "SIV MAC239; pirfenidone only arm vs no treatment", "value": "lower"}, {"measurement": "CD4 population in Peyer's Patches", "setting": "SIV MAC239; pirfenidone vs control animals, FIG. 4D", "value": "higher"}, {"measurement": "excessive biosynthesis or release of various cytokines such as TNF-α, TGF-β1, bFGF, PDGF, and EGF", "setting": "[1]", "value": "inhibit"}, {"measurement": "proportion of the TZ occupied by collagen (composite, FIG. 12A)", "setting": "SIV infection; ARV + pirfenidone arm vs ARV only", "value": "lower"}, {"measurement": "increase in the TZ area staining positive for CD4+ T cells upon initiation of ARV", "setting": "SIV infection; animals treated with pirfenidone vs ARV only, FIG. 11D", "value": "greater increase"}, {"measurement": "rate of change in CD4+ area in TZ", "setting": "SIV infection; co-administration of pirfenidone and ARV relative to ARV alone, FIG. 12B", "value": "improves"}, {"measurement": "absolute number of naïve CD4 T cells of the TZ", "setting": "SIV infection; group D (pirfenidone + ARV) relative to group C (ARV only), week 16 through week 24, FIG. 9", "value": "increase"}, {"measurement": "number of CD4 T cells in the TZ (TZ area staining positive for CD4+ T cells)", "setting": "SIV infection; group D (pirfenidone + ARV) relative to group C (ARV only), week 16 through week 24, FIGS. 8, 11D", "value": "increased; also recorded: more of the TZ stains positive for CD4^+ T cells"}, {"measurement": "percentage of CD4 T cells in GALT", "setting": "SIV infection; group D (pirfenidone + ARV) relative to group C (ARV only), week 24, FIG. 10", "value": "increased"}, {"measurement": "percentage area of the T cell zone with collagen", "setting": "SIV infection; group D (pirfenidone from week -2 + ARV from week 8) relative to group C (ARV only), FIGS. 7, 11B", "value": "significantly lower; also recorded: significant reduction"}, {"measurement": "balance of matrix metalloproteinases (MMPs) and their endogenous inhibitors (TIMPs)", "setting": "[2]", "value": "alter"}, {"measurement": "collagen expression", "setting": "[2]", "value": "decrease"}]}]}
